In the supplement of paper PMC10307832:

Experiments:
Assay in all cases: relative viability (nuclei count vs DMSO), 5 days (fraction); higher = more cells survive
[1] = system: PC-3 [JPC-3]
How it was run: (§1)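 Values are medians from duplicate plates. Each reflects relative viability, defined as the nuclei count of treated wells over that of vehicle wells. Lung cancer cell lines in 1536-well plates were pin-tool dosed one day after seeding with one drug alone or with a fixed anchor-drug dose plus five library-drug doses (not always all listed) in √10 steps, then fixed, stained and imaged at 4× after 5 days.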

[2] = system: PC-14
How it was run: as §1

[3] = system: NCI-H1650
How it was run: as §1

[4] = system: NCI-H1355
How it was run: as §1

[5] = system: NCI-H1563
How it was run: as §1

[6] = system: NCI-H322M
How it was run: as §1

[7] = system: RERF-LC-KJ
How it was run: as §1

[8] = system: CAL-12T
How it was run: as §1

[9] = system: EKVX
How it was run: as §1

[10] = system: NCI-H2228
How it was run: as §1

[11] = system: ABC-1
How it was run: as §1

[12] = system: COR-L23
How it was run: as §1

[13] = system: HCC-15
How it was run: as §1

[14] = system: NCI-H2405
How it was run: as §1

[15] = system: SW 1573
How it was run: as §1

[16] = system: HCC-827
How it was run: as §1

[17] = system: H3255
How it was run: as §1

[18] = system: NCI-H661
How it was run: as §1

[19] = system: NCI-H520
How it was run: as §1

[20] = system: NCI-H1437
How it was run: as §1

[21] = system: NCI-H1734
How it was run: as §1

[22] = system: NCI-H1651
How it was run: as §1

C[C@@H]1CN(CC(=O)Nc2ccc3c(c2)Cc2cccc(-c4cc(=O)cc(N5CCOCC5)o4)c2S3)C[C@H](C)O1 + CC(C)C[C@H](NC(=O)[C@H](Cc1ccccc1)NC(=O)c1cnccn1)B(O)O [Bortezomib] (partner 0.002 µM)
relative viability ([1]; first compound 0.04 µM): 0.861
relative viability ([1]; first compound 0.1265 µM): 0.771
relative viability ([1]; first compound 0.4 µM): 0.908
relative viability ([1]; first compound 4 µM): 0.677
relative viability ([2]; first compound 0.04 µM): 0.993
relative viability ([2]; first compound 0.1265 µM): 0.859
relative viability ([2]; first compound 0.4 µM): 0.798
relative viability ([2]; first compound 4 µM): 0.664
relative viability ([3]; first compound 0.04 µM): 0.221
relative viability ([3]; first compound 0.1265 µM): 0.23
relative viability ([3]; first compound 0.4 µM): 0.192
relative viability ([3]; first compound 4 µM): 0.183
relative viability ([4]; first compound 0.04 µM): 1.2
relative viability ([4]; first compound 0.1265 µM): 1.23
relative viability ([4]; first compound 0.4 µM): 1.19
relative viability ([4]; first compound 4 µM): 1.18
relative viability ([5]; first compound 0.04 µM): 0.89
relative viability ([5]; first compound 0.1265 µM): 1.01
relative viability ([5]; first compound 0.4 µM): 0.828
relative viability ([5]; first compound 4 µM): 0.797
relative viability ([6]; first compound 0.04 µM): 1.09
relative viability ([6]; first compound 0.1265 µM): 1.14
relative viability ([6]; first compound 0.4 µM): 1.32
relative viability ([6]; first compound 4 µM): 1.12
relative viability ([7]; first compound 0.04 µM): 1.24
relative viability ([7]; first compound 0.1265 µM): 1.17
relative viability ([7]; first compound 0.4 µM): 1.07
relative viability ([7]; first compound 4 µM): 0.998
relative viability ([8]; first compound 0.04 µM): 1.06
relative viability ([8]; first compound 0.1265 µM): 0.954
relative viability ([8]; first compound 0.4 µM): 1.06
relative viability ([8]; first compound 4 µM): 0.796
relative viability ([9]; first compound 0.04 µM): 1.19
relative viability ([9]; first compound 0.1265 µM): 1.02
relative viability ([9]; first compound 0.4 µM): 0.945
relative viability ([9]; first compound 4 µM): 0.705
relative viability ([10]; first compound 0.04 µM): 0.932
relative viability ([10]; first compound 0.1265 µM): 0.877
relative viability ([10]; first compound 0.4 µM): 0.821
relative viability ([10]; first compound 4 µM): 0.523
relative viability ([11]; first compound 0.1265 µM): 0.3
relative viability ([11]; first compound 0.4 µM): 0.304
relative viability ([11]; first compound 4 µM): 0.265
relative viability ([12]; first compound 0.04 µM): 0.975
relative viability ([12]; first compound 0.1265 µM): 0.996
relative viability ([12]; first compound 0.4 µM): 0.984
relative viability ([12]; first compound 4 µM): 0.795
relative viability ([13]; first compound 0.04 µM): 1
relative viability ([13]; first compound 0.1265 µM): 0.948
relative viability ([13]; first compound 0.4 µM): 1.03
relative viability ([13]; first compound 4 µM): 0.836
relative viability ([14]; first compound 0.04 µM): 0.984
relative viability ([14]; first compound 0.1265 µM): 0.995
relative viability ([14]; first compound 0.4 µM): 0.978
relative viability ([14]; first compound 4 µM): 0.994
relative viability ([15]; first compound 0.04 µM): 1.17
relative viability ([15]; first compound 0.1265 µM): 1.15
relative viability ([15]; first compound 0.4 µM): 0.926
relative viability ([15]; first compound 4 µM): 0.976
relative viability ([16]; first compound 0.04 µM): 1.01
relative viability ([16]; first compound 0.1265 µM): 1.02
relative viability ([16]; first compound 0.4 µM): 1.06
relative viability ([16]; first compound 4 µM): 1.09
relative viability ([17]; first compound 0.04 µM): 0.495
relative viability ([17]; first compound 0.1265 µM): 0.771
relative viability ([17]; first compound 0.4 µM): 0.534
relative viability ([17]; first compound 4 µM): 0.582
relative viability ([18]; first compound 0.1265 µM): 0.798
relative viability ([18]; first compound 0.4 µM): 0.765
relative viability ([18]; first compound 4 µM): 0.778
relative viability ([19]; first compound 0.04 µM): 0.906
relative viability ([19]; first compound 0.1265 µM): 0.671
relative viability ([19]; first compound 0.4 µM): 0.247
relative viability ([19]; first compound 4 µM): 0.584
relative viability ([20]; first compound 0.04 µM): 0.486
relative viability ([20]; first compound 0.1265 µM): 0.529
relative viability ([20]; first compound 0.4 µM): 0.489
relative viability ([20]; first compound 4 µM): 0.45
relative viability ([21]; first compound 0.04 µM): 1.07
relative viability ([21]; first compound 0.1265 µM): 1.04
relative viability ([21]; first compound 0.4 µM): 0.927
relative viability ([21]; first compound 4 µM): 1.1
relative viability ([22]; first compound 0.04 µM): 0.848
relative viability ([22]; first compound 0.1265 µM): 0.866
relative viability ([22]; first compound 0.4 µM): 0.922
relative viability ([22]; first compound 4 µM): 0.976
